Legend:
HACLHs = target: T1, HACLHs (Homo sapiens, UniProt Q9UJ83); test: Aldehyde and ketone screen with HACLHs (carboligation with formyl-CoA, LC-MS of CoA esters); format: biochemical; conditions: 10 mM aldehyde, 1 mM formyl-CoA, 5 μM enzyme, 1 h, relative to the comparison of OXC and HACL, n.d. = product not detected
T1 construct: His-tag (from vector pET-16b); made in house; host or cells: E. coli ArcticExpress (DE3)
Procedure: Samples were diluted 1:10 in H2O. […] Standard injection volume was 1 μl.
0.5 mM ADP, 0.15 mM ThDP.

OXCMe = OXCMe aldehyde and ketone screen (carboligation with formyl-CoA, LC-MS of CoA esters); conditions: 10 mM aldehyde, 1 mM formyl-CoA, 5 μM enzyme, 1 h, relative to the comparison of OXC and HACL, n.d. = product not detected
Procedure: Samples were diluted 1:10 in H2O. UPLC-high resolution MS of CoA esters was performed as described previously.^[5] CoA esters were analyzed using an Agilent 6550 iFunnel Q-TOF LC-MS system equipped with an electrospray ionization source set to positive ionization mode. Compounds were separated on a RP-18 column (50 mm×2.1 mm, particle size 1.7 μm, Kinetex EVO C18, Phenomenex) using a mobile phase system comprised of 50 mM ammonium formate pH 8.1 (A) and methanol (B). Chromatographic separation was carried out using the following gradient condition at a flow rate of 250 μl/min: 0 min 2.5% B; 2.5 min 2.5% B; 8 min 23% B; 10 min 80% B; 11 min 80%; 12 min 2.5% B; 12.5 min 0% B. The column oven was set to 40° C. and autosampler was maintained at 10° C. Standard injection volume was 1 μl. Capillary voltage was set at 3.5 kV and nitrogen gas was used as nebulizing (20 psig), drying (13 l/min, 225° C.) and sheath gas (12 l/min, 400° C.). […] The scan range for MS and MS/MS data is 100-1000 m/z and 50-1000 m/z respectively. Collision energy used for MS/MS fragmentation was 35 eV.
Unless noted otherwise, all LC-MS assays were carried out at 30° C. in reaction buffer consisting of 50 mM TES-KOH pH 6.8, 10 mM MgCl2. 0.5 mM ADP, 0.15 mM ThDP.
In reaction buffer, 1 mM formyl-CoA and 10 mM aldehyde (formaldehyde, acetaldehyde, glycolaldehyde, propionaldehyde, glyceraldehyde, glyoxylate, succinic semialdehyde, benzaldehyde, phenylacetaldehyde, and acetone) was mixed with 5 μM OXCMe or HACLHs. The reaction was stopped after 1 h and products analyzed with the CoA ester method described above.

[1] = test system: OXS-OXCMe-Y497A-YciA cascade; format: biochemical; conditions: 25 mM aldehyde, 10 mM disodium oxalate, 10 mM ATP, OXS 5 μM, OXCMe-Y497A 5 μM, YciA 2 μM; chiral HPLC
Procedure: Samples were diluted 1:10 in H2O. UPLC-high resolution MS analyses were performed on an Agilent 6550 iFunnel QTOF LC/MS system equipped with an electrospray ionization source to negative ionization mode. The analytes were isocratically chromatographed on a chiral column (100 mm×2.1 mm, particle size 2.7 μm, Poroshell 120 Chiral-T, Agilent) kept at ambient temperature using a mobile phase system comprised of 30:70 20 mM ammonium formate pH 4/methanol at a flow rate of 250 μl/min for 10 min. Samples were held at 10° C. and injection volume was 1 μl. […] MS data were acquired with a scan range of 100-1100 m/z. For quantification the calculated m/z value of [M-H]^− was used to obtain the extracted ion count from the total ion count.
0.5 mM ADP, 0.15 mM ThDP, 0.5 mM CoA, 10 mM ATP, 25 mM benzaldehyde, 5 μM OXS, 5 μM OXC and 2 μM YciA. The reaction was started by adding 10 mM oxalate. As negative controls, YciA, OXS or OXC were omitted in separate reactions. Samples were taken after 0, 0.05, 0.25, 0.66, 1, 2, 3, 22 hours and analyzed with the LC-MS detection of mandelic acid derivatives.
The aldehyde substrate screen of the OXS-OXCMe-Y497A-YciA cascade was carried out as described above (example 13), except that the aromatic aldehydes were prepared as 33 mM stocks in 20 vol % DMSO and diluted to final concentration of 25 mM into the assay. Samples were analyzed with the mandelic acid derivatives method described above. Mandelic acid (3a), 4-chloromandelic acid (3c), 2-chloromandelic acid (3d) and 3-phenyllactic acid (3b) were quantified by comparison to commercial standards.

[2] = test system: OXS-OXCMe-YciA cascade with FRC; test: OXS-OXCMe-Y497A-YciA cascade with FRC (α-hydroxy carboxylic acid from oxalate, one pot); format: biochemical; conditions: 2 μM FRC, 7.6 mM benzaldehyde or phenylacetaldehyde, 10 μM OXCMe-Y497A
Procedure: 0.5 mM ADP, 0.15 mM ThDP, 0.5 mM CoA, 10 mM ATP, 7.6 mM benzaldehyde or phenylacetaldehyde, 2 μM FRC, 2 μM YciA, 10 μM OXCMe-Y497A and 5 μM OXS. The reaction was started by adding 10 mM disodium oxalate. Samples were taken after 0, 15, 30, 60 min and analyzed with the mandelic acid derivatives method described above.
0.5 mM ADP, 0.15 mM ThDP, 0.5 mM CoA, 10 mM ATP, 7.6 mM benzaldehyde or phenylacetaldehyde, 2 μM FRC (Formyl-CoA:oxalate CoA-transferase from Oxalobacter formigenes EC 2.8.3.16), 2 μM YciA, 10 μM OXCMe-Y497A and 5 μM OXS were mixed and the reaction was initiated by the addition of 10 mM disodium oxalate. For the negative control FRC was omitted in a separate reaction. Samples were taken after 0, 15, 30, 60 min and analyzed with the mandelic acid derivatives method described above.

YciA = target: T2, YciA (Escherichia coli, UniProt P0A8Z0); test: YciA substrate screen (thioesterase activity towards oxalyl-CoA, formyl-CoA, mandelyl-CoA); format: biochemical, E. coli; conditions: 2 μM YciA, 0.5 mM CoA ester, 30° C., pH 6.8
T2 construct: His-tag (ASKA clone); made in house; host or cells: E. coli BL21 (DE3)
Procedure: 0.5 mM ADP, 0.15 mM ThDP and 25 mM benzaldehyde, 2 μM YciA (A) or no YciA (B). The reaction was started by adding either 0.5 mM formyl-CoA or 0.5 mM oxalyl-CoA or 0.5 mM mandelyl-CoA. Samples were taken after 0, 1, 5 and 30 minutes and analyzed with the LC-MS detection of CoA esters. CoA esters were quantified by comparison to synthetic standards of formyl-CoA, oxalyl-CoA and mandelyl-CoA, respectively. Error bars show standard deviation of two.
Thioesterase activity of YciA towards oxalyl-CoA, formyl-CoA and racemic mandelyl-CoA. […] 0.5 mM ADP, 0.15 mM ThDP and 25 mM benzaldehyde, 2 μM YciA (A) or no YciA (B). The reaction was started by adding either 0.5 mM formyl-CoA or 0.5 mM oxalyl-CoA or 0.5 mM mandelyl-CoA. Samples were taken after 0, 1, 5 and 30 minutes and analyzed with the LC-MS detection of CoA esters. CoA esters were quantified by comparison to synthetic standards of formyl-CoA, oxalyl-CoA and mandelyl-CoA, respectively.

T2 sequence (P0A8Z0 whole entry): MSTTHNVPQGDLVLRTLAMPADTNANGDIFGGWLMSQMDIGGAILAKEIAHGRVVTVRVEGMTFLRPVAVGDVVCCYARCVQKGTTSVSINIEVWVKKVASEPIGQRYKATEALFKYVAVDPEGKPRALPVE
T1 sequence (Q9UJ83 whole entry): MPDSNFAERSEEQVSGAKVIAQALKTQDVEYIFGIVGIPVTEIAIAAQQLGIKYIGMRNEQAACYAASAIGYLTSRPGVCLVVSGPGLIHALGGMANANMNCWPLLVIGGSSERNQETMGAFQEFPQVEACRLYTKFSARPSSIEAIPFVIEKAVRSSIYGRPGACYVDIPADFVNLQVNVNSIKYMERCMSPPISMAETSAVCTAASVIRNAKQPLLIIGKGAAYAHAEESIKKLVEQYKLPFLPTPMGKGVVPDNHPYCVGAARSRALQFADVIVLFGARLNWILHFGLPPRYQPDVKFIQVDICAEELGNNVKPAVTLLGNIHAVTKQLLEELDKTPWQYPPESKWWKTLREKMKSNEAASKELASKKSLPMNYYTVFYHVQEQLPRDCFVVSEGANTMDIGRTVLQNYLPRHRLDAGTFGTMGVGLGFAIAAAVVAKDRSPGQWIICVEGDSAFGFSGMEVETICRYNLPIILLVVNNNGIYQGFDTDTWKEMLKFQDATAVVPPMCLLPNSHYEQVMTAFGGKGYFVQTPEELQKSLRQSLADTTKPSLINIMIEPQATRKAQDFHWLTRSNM

CC(C)(COP(=O)(O)OP(=O)(O)OC[C@H]1O[C@@H](n2cnc3c(N)ncnc32)[C@H](O)[C@@H]1OP(=O)(O)O)[C@@H](O)C(=O)NCCC(=O)NCCSC(=O)CO [glycolyl-CoA]
HACLHs relative activity (HACLHs): 11%
OXCMe relative activity (OXCMe): 100%

O=C(O)C(O)Cc1ccccc1 (racemic) [3-phenyllactic acid]
Conversion [%] [1]: 58%
increase of product formation rate by addition of FRC [2]: 2.3 fold

CC(C)(COP(=O)(O)OP(=O)(O)OC[C@H]1O[C@@H](n2cnc3c(N)ncnc32)[C@H](O)[C@@H]1OP(=O)(O)O)[C@@H](O)C(=O)NCCC(=O)NCCSC(=O)C(=O)O [oxalyl-CoA]
thioesterase activity of YciA towards the CoA ester (YciA): no activity

CC(C)(COP(=O)(O)OP(=O)(O)OC[C@H]1O[C@@H](n2cnc3c(N)ncnc32)[C@H](O)[C@@H]1OP(=O)(O)O)[C@@H](O)C(=O)NCCC(=O)NCCSC=O [formyl-CoA]
thioesterase activity of YciA towards the CoA ester (YciA): low activity

CC(C)(COP(=O)(O)OP(=O)(O)OC[C@H]1O[C@@H](n2cnc3c(N)ncnc32)[C@H](O)[C@@H]1OP(=O)(O)O)[C@@H](O)C(=O)NCCC(=O)NCCSC(=O)C(O)CO (some centres unmarked) [glyceryl-CoA]
HACLHs relative activity (HACLHs): 100%
OXCMe relative activity (OXCMe): 1%

CC(C)(COP(=O)(O)OP(=O)(O)OC[C@H]1O[C@@H](n2cnc3c(N)ncnc32)[C@H](O)[C@@H]1OP(=O)(O)O)[C@@H](O)C(=O)NCCC(=O)NCCSC(=O)C(O)CCC(=O)O (some centres unmarked) [2-hydroxyglutaryl-CoA]
HACLHs relative activity (HACLHs): 100%
OXCMe relative activity (OXCMe): 1%

CC(O)C(=O)SCCNC(=O)CCNC(=O)[C@H](O)C(C)(C)COP(=O)(O)OP(=O)(O)OC[C@H]1O[C@@H](n2cnc3c(N)ncnc32)[C@H](O)[C@@H]1OP(=O)(O)O (some centres unmarked) [lactyl-CoA]
HACLHs relative activity (HACLHs): 100%
OXCMe relative activity (OXCMe): 74%

O=C(O)C(O)c1ccccc1 (centres unmarked) [mandelic acid]
Conversion [%] [1]: 75%
increase of product formation rate by addition of FRC [2]: 1.4 fold

O=C(O)[C@@H](O)c1ccccc1Cl [2-chloromandelic acid, (S)-2-chloromandelic acid]
Conversion [%] [1]: 93%

CCC(O)C(=O)SCCNC(=O)CCNC(=O)[C@H](O)C(C)(C)COP(=O)(O)OP(=O)(O)OC[C@H]1O[C@@H](n2cnc3c(N)ncnc32)[C@H](O)[C@@H]1OP(=O)(O)O (some centres unmarked) [2-hydroxybutyryl-CoA]
HACLHs relative activity (HACLHs): 100%
OXCMe relative activity (OXCMe): 5%

CC(C)(COP(=O)(O)OP(=O)(O)OC[C@H]1O[C@@H](n2cnc3c(N)ncnc32)[C@H](O)[C@@H]1OP(=O)(O)O)[C@@H](O)C(=O)NCCC(=O)NCCSC(=O)C(O)c1ccccc1 (some centres unmarked) [mandelyl-CoA]
HACLHs relative activity (HACLHs): 3%
thioesterase activity of YciA towards the CoA ester (YciA): relatively high
OXCMe relative activity (OXCMe): 100%

O=C(O)C(O)c1ccc(Cl)cc1 (racemic) [4-chloromandelic acid]
Conversion [%] [1]: 57%

CC(C)(COP(=O)(O)OP(=O)(O)OCC1OC(n2cnc3c(N)ncnc32)C(O)C1OP(=O)(O)O)C(O)C(=O)NCCC(=O)NCCSC(=O)C(O)Cc1ccccc1 (centres unmarked) [phenyllactyl-CoA]
HACLHs relative activity (HACLHs): 100%
OXCMe relative activity (OXCMe): 22%

From patent US20220315968A1, “PEPTIDES AND METHODS FOR THE CARBON-CARBON BOND FORMATION” (Max-Planck-Gesellschaft zur Förderung der Wissenschaften …, priority 2019, published 2022)
